The record followed here is patent US7183274B2, “Piperidine-2,6-diones heterocyclically substituted in the 3-position” (Gruenenthal GmbH, priority 2001, dated 2007).

For experiment [1], the system named is IL-12 production of LPS-activated monocytes. As to the kind of experiment: Inhibition of IL-12 production of LPS-activated human monocytes (ELISA of culture supernatant). Format: cell-based. The conditions noted are these: 20 μg/ml LPS from E. coli, 24 hours; for IC50: Monocyte. The procedure:
(§1) Stimulation of human monocytes with lipopolysaccharide for the secretion of IL-10 and IL-12:
(§2) Human monocytes were isolated from peripheral blood mononuclear cells (PBMC) that had been obtained by means of a ficoll density gradient centrifugation from heparinized full blood. For this purpose the PBMC were incubated with a monoclonal antibody that is directed against the monocyte-specific surface molecule CD14 and on which are coupled superparamagnetic microbeads (Miltenyi Biotech, Bergisch Gladbach). For the positive selection of the marked monocytes from the cell mixture of the PBMC, the total cell suspension was added to a column with ferromagnetic carrier matrix and this was placed in a magnetic field. In this way the cells that were loaded with microbeads were bound to the carrier matrix while unmarked cells passed through the column and were discarded. After removing the matrix from the magnetic field the antibody-loaded cells were eluted by rinsing the now demagnetized column with buffer. The purity of the CD14-positive monocyte population obtained in this way is about 95–98%. These monocytes were incubated for 1 hour at 37° C. and 5% CO2 in a density of 10^6 cells/ml culture medium (RPMI, supplemented with 10% fetal calf serum) with the test substances dissolved in DMSO. 20 μg/ml LPS from E. coli were then added. After 24 hours cell-free culture supernatants were taken and tested for their content of IL-10 as well as IL-12.
(§3) The concentration of IL-12 and IL-10 in the cell culture supernatants was determined by means of sandwich ELISAs using two anti-IL-12 and IL-10 monoclonal antibodies (Biosource Europe, Fleurus, Belgium). A reference standard curve with human IL-10 and IL-12 was included. The detection limit of the IL-12 ELISA was 10 pg/ml, and that of the IL-10 ELISA was 15 pg/ml.
Background: An ELISA detects its analyte on a solid surface through an enzyme-linked reagent.

Experiment [2] has as its system IL-10 production of LPS-activated monocytes. As to the kind of experiment: Increase in IL-10 production of LPS-activated human monocytes (ELISA of culture supernatant). Format: cell-based. The conditions noted are these: 20 μg/ml LPS from E. coli, 24 hours. The protocol:
as §1, §2, §3

In brackets after ≈: the same amount, converted by molar mass.

What is called IC50 is the concentration that inhibits the measured activity by half. Low values mean greater potency in that assay, high ones weaker potency in that assay. With `Br.O=C1CCC(N2C=Nc3cc(Cl)ccc3C2)C(=O)N1` (stereo not drawn) [Example 1, 3-(7-chloro-4H-quinazolin-3-yl)piperidine-2,6-dione; hydrobromide], in experiment [1], the “Inhibition of IL-12 Production Maximum (%)” value (“Inhibition … (%)” below) was 99% and the midpoint of inhibition, the IC50, lay at 0.005 µg/mL. Further, in experiment [2], the “Increase in IL-10 Production Maximum (%)” value came out at 360%.
With `Br.O=C1CCC(N2C=Nc3ccccc3C2)C(=O)N1` (stereo not drawn) [Example 3, 3-(4H-quinazolin-3-yl)piperidine-2,6-dione; hydrobromide], in experiment [1], the “Inhibition … (%)” value came to 98% and the IC50 was found to be 0.01 µg/mL. The “Increase in IL-10 Production Maximum (%)” value in experiment [2] was determined as 230%.
Take `O=C1CCC(N2C=Nc3cccc(Cl)c3C2)C(=O)N1` (stereo not drawn) [Example 7a, 3-(5-chloro-4H-quinazolin-3-yl)piperidine-2.6-dione]: in experiment [1], the “Inhibition of IL-12 Production IC50” value turned out to be 0.001 µg/mL and the “Inhibition … (%)” value was 98%. In experiment [2], the “Increase in IL-10 Production Maximum (%)” value amounted to 365%.
Consider `Cl.O=C1CCC(N2C=Nc3cc(F)ccc3C2)C(=O)N1` (stereo not drawn) [Example 7f, 3-(7-fluoro-4H-quinazolin-3-yl)piperidine-2,6-dione; hydrochloride], for which, in experiment [1], the “Inhibition … (%)” value is listed as 98% and the IC50 was 0.0008 µg/mL. The “Increase in IL-10 Production Maximum (%)” value in experiment [2] amounted to 420%.
As to `O=C1CCC(N2C=Nc3cccc(F)c3C2)C(=O)N1` (stereo not drawn) [Example 7h, 3-(5-fluoro-4H-quinazolin-3-yl)piperidine-2.6-dione], in experiment [1], the “Inhibition of IL-12 Production IC50” value came to 0.006 µg/mL and the “Inhibition … (%)” value came out at 97%. In addition, in experiment [2], the “Increase in IL-10 Production Maximum (%)” value is 316%.
`O=C1CCC(N2C=Nc3cccc([N+](=O)[O-])c3C2)C(=O)N1` (stereo not drawn) [Example 7i, 3-(5-nitro-4H-ginazolin-3-yl)piperidine-2,6-dione]: in experiment [1], the “Inhibition of IL-12 Production IC50” value was found to be 0.036 µg/mL and the “Inhibition … (%)” value turned out to be 96%. Further, in experiment [2], the “Increase in IL-10 Production Maximum (%)” value is listed as 211%.
For the compound `Cc1cccc2c1CN(C1CCC(=O)NC1=O)C=N2` (stereo not drawn) [Example 7m, 3-(5-methyl-4H-quinazolin-3-yl)piperidine-2,6-dione], in experiment [1], the “Inhibition … (%)” value is 89% and the IC50 stood at 0.05 µg/mL (≈ 0.194 µM). In experiment [2], the “Increase in IL-10 Production Maximum (%)” value came out at 202%.
For `O=C1CCC(N2C=Nc3cc(F)c(F)cc3C2)C(=O)N1` (stereo not drawn) [Example 7n, 3-(6,7-difluoro-4H-quinazolin-3-yl)piperidine-2,6-dione], in that order: 84%, 0.042 µg/mL (≈ 0.15 µM) and 263%.
As to `O=C1CCC(N2C(=O)c3ccccc3C2=O)C(=O)N1` (stereo not drawn) [Thalidomide, thalidomide, reference compound], in experiment [1], the “Inhibition … (%)” value is recorded as 80% and the IC50 was determined as 0.1 µg/mL (≈ 0.387 µM). Besides, the “Increase in IL-10 Production Maximum (%)” value in experiment [2] stood at 180%.
